Data on one compound can be found in patent US5912266A, “Beta2 integrin cell adhesion molecule inhibitors” (American Home Products Corporation, priority 1997, dated 1999).

Where “and” joins values, the source holds several entries; their conditions need not be identical. Identical values can stand only once.

The experiment deals with T1, E-selectin (Homo sapiens, UniProt P16581).
T1 construct: calcein-labelled HL60 cells adhere
T1 sequence (P16581 22-556 limits assumed): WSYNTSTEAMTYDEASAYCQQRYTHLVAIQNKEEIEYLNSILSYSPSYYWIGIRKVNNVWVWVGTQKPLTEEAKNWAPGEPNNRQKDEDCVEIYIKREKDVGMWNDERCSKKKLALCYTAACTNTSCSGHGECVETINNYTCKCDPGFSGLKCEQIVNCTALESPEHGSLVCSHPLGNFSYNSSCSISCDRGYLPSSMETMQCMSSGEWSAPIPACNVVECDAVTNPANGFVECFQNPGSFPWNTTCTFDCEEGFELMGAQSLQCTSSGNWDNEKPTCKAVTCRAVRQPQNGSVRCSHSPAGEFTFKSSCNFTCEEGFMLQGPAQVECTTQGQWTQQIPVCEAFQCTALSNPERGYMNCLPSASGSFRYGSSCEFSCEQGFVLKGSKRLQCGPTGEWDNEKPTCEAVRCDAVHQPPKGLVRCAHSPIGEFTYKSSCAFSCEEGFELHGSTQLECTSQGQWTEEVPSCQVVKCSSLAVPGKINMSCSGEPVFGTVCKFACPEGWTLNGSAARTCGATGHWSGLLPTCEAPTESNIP
Briefly: Adhesion of HL60 cells to recombinant, soluble, human E-selectin. It counts as cell-based. The conditions noted are these: for Percent Cells Bound: single well. On the procedure: rsE-selectin was prepared and purified using standard molecular biology techniques. HL60 cells were obtained from American Type Culture Collection (ATCC) and maintained in culture media, as described in Example I, except that cells could be used in the assay at any passage number. Other materials required for the assay are as described in Examples I and II.
200 ng of purified, recombinant, soluble E-selectin contained in 100 μl of dPBS was added to wells of a flat bottom 96 well EIA/RIA plate. The control wells were filled with dPBS only and the assay plate was incubated at 4° C. for at least 18 hours to allow the rsE-selectin to bind to assay wells. The rsE-selectin solution was removed from the wells of the assay plate, washed, and blocked with 1% BSA, as described in Example II.
HL60 cells were harvested from culture, washed and labeled with calcein AM as outlined in Example I, except that the concentration of calcein used to label the HL-60 cells was 12.5 μM and cells were centrifuged at 1000 rpm for 5 minutes. After the final cell wash (see Example I), the cells were resuspended in ice-cold PMN buffer to 1.0×10^5 cells/40 μl and the cells were placed in the dark at room temperature until added to the assay plate.
The asperlin solutions were prepared as described in Example I. The dPBS remaining in the wells of the assay plate was removed by inverting the plate and tapping it on paper toweling and the assay was performed as described in Example II. 100 μl of PMN buffer was added to all wells of the assay plate and the fluorescence of the adherent HL-60 cells binding to rsE-selectin was measured using a fluorescent plate reader, described in Example I. The percentage of HL60 cells binding to E-selectin and the percentage of inhibition of HL60 cell adhesion to E-selectin in the presence of asperlin were also quantitated as described in Example II.

Take `CC(=O)OC1C=CC(=O)OC1C1OC1C` [Asperlin, 6,7-Anhydro-2,3,8-trideoxy-D-galacto-oct-2-enoic acidδ-lactone 4-acetate]: where the note is “Asperlin 100 μg/ml”, the “Average Percent Bound” value is 62%; the “Bound Cell Fluorescence” value was 1412 fluorescence units/well and 1096 fluorescence units/well; the “Percent Cells Bound” value was 64% and 59%. Under “Asperlin 200 μg/ml”, the “Average Percent Bound” value is reported as 48%; the “Bound Cell Fluorescence” value is 1124 fluorescence units/well and 887 fluorescence units/well; the “Percent Cells Bound” value is 52% and 44%. Further, the inhibition at 100 µg/mL (HL-60, Asperlin 100 μg/ml) is -19%. Moreover, the inhibition at 200 µg/mL (HL-60, Asperlin 200 μg/ml) was 8%. The “Effect on E-selectin mediated HL60 cell binding (in words)” value (summary of Table III) was “does not inhibit E-selectin mediated HL60 cell binding”.
